Experimental data as given in PubChem BioAssay AID330 (DTP/NCI, 2004).
“And” between values parts separate entries of the source, which are not always exact repeats. Identical values can stand only once. Toxic doses and inconclusive results are not listed. How the source made its calls: active means survival T/C of 150% or more; inactive means T/C below 125% in these data.

System: P388 leukemia ip, CD2F1 mice, survival T/C
Assay: NCI In Vivo Anticancer Drug Screen. Data for tumor model P388 Leukemia (intraperitoneal) in CD2F1 (CDF1) mice
Settings: endpoint: median survival time, higher = longer survival
How it was run: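 Mice carrying the transplanted tumor received test compound or vehicle. Survival was recorded in each group, and the value is the treated-group measurement divided by that of the vehicle-treated control group.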

[1] = dose: 60.0 mg/kg/injection, schedule: Q01DX005 (ip), vehicle: Klucel (hydroxypropylcellulose) (HPC)
[2] = dose: 120.0 mg/kg/injection, schedule: Q01DX005 (ip), vehicle: Klucel (hydroxypropylcellulose) (HPC)
[3] = dose: 240.0 mg/kg/injection, schedule: Q01DX005 (ip), vehicle: Klucel (hydroxypropylcellulose) (HPC)
[4] = dose: 50.0 mg/kg/injection, schedule: Q01DX009 (ip), vehicle: saline
[5] = dose: 100.0 mg/kg/injection, schedule: Q01DX009 (ip), vehicle: saline
[6] = dose: 200.0 mg/kg/injection, schedule: Q01DX009 (ip), vehicle: saline
[7] = dose: 60.0 mg/kg/injection, schedule: Q01DX005 (ip), vehicle: saline with Tween-80
[8] = dose: 120.0 mg/kg/injection, schedule: Q01DX005 (ip), vehicle: saline with Tween-80
[9] = dose: 240.0 mg/kg/injection, schedule: Q01DX005 (ip), vehicle: saline with Tween-80
[10] = dose: 100.0 mg/kg/injection, schedule: Q01DX009 (ip), vehicle: saline with Tween-80
[11] = dose: 200.0 mg/kg/injection, schedule: Q01DX009 (ip), vehicle: saline with Tween-80

Measured: T/C

COC(=O)/C=C/c1cc(=O)nc2sc3ccccc3n12
inactive: [1] 93 % of control | [2] 93 % of control | [3] 94 % of control

CCNCC(O)c1ccc(F)cc1 (stereo unspecified)
inactive: [4] 101 % of control | [5] 96 % of control | [6] 91 % of control

Cc1ccc(S(=O)(=O)CC(=O)CC(=O)C(N)=O)cc1
inactive: [7] 109 % of control | [8] 108 % of control | [9] 104 % of control

Cc1ccc(N2CC=C(c3ccccc3)OP2(=O)N2CC2)cc1 (stereo unspecified)
inactive: dose: 50.0 mg/kg/injection, schedule: Q01DX005 (ip), vehicle: Klucel (hydroxypropylcellulose) (HPC) 101 % of control | dose: 100.0 mg/kg/injection, schedule: Q01DX005 (ip), vehicle: Klucel (hydroxypropylcellulose) (HPC) 101 % of control | dose: 200.0 mg/kg/injection, schedule: Q01DX005 (ip), vehicle: Klucel (hydroxypropylcellulose) (HPC) 94 % of control

CC1(C)c2cccc(O)c2C(=O)C2C(O)=C3C(O)=C(C(N)=O)C(=O)CC3C(O)C21 (stereo unspecified)
inactive: [7] 109 % of control | [8] 111 % of control | [9] 121 % of control

COc1ccc(/C=C2/C(=O)N(c3ccccc3)N=C2C)cc1
inactive: [1] 107 % of control | [2] 104 % of control | [3] 107 % of control

COc1ccc(CCN2C(=O)CSC2=S)cc1OC
inactive: [10] 100 % of control | dose: 100.0 mg/kg/injection, schedule: Q04DX003 (ip), vehicle: saline with Tween-80 90 % of control | [11] 90 % of control | dose: 200.0 mg/kg/injection, schedule: Q04DX003 (ip), vehicle: saline with Tween-80 90 % of control | dose: 400.0 mg/kg/injection, schedule: Q04DX003 (ip), vehicle: saline with Tween-80 90 % of control

CC(C)(OC(C)(C)C(=O)O)C(=O)O
inactive: [4] 99 % of control | [5] 94 % of control | [6] 92 % of control

NC(CCl)C(=O)NO (stereo unspecified)
inactive: [4] 99 % of control | [5] 96 % of control | [6] 103 % of control

COc1cccc2c1C(=O)c1c(cc3c(c1O)[C@@H](OC1CC(NC(=O)c4ccc(N=[N+]=[N-])cc4)C(O)C(C)O1)C[C@](O)(C(C)=O)C3)C2=O (stereo partly specified)
inactive: dose: 6.25 mg/kg/injection, schedule: Q04DX003 (ip), vehicle: olive oil, sesame oil, peanut oil 100 % of control | dose: 12.5 mg/kg/injection, schedule: Q04DX003 (ip), vehicle: olive oil, sesame oil, peanut oil 97 % of control | dose: 25.0 mg/kg/injection, schedule: Q04DX003 (ip), vehicle: olive oil, sesame oil, peanut oil 100 % of control | dose: 50.0 mg/kg/injection, schedule: Q04DX003 (ip), vehicle: olive oil, sesame oil, peanut oil 112 % of control

CC(=O)Nc1cc2cc(N=CN(C)C)ccc2oc1=O
inactive: dose: 60.0 mg/kg/injection, schedule: Q01DX005 (ip), vehicle: Klucel + Tween-80 99 % of control | dose: 120.0 mg/kg/injection, schedule: Q01DX005 (ip), vehicle: Klucel + Tween-80 104 % of control

O=C(O)c1ccc(N=NNc2ccc(C(=O)O)cc2)cc1
inactive: dose: 50.0 mg/kg/injection, schedule: Q01DX009 (ip), vehicle: Klucel (hydroxypropylcellulose) (HPC) 96 % of control | dose: 100.0 mg/kg/injection, schedule: Q01DX009 (ip), vehicle: Klucel (hydroxypropylcellulose) (HPC) 99 % of control | dose: 200.0 mg/kg/injection, schedule: Q01DX009 (ip), vehicle: Klucel (hydroxypropylcellulose) (HPC) 95 % of control | dose: 400.0 mg/kg/injection, schedule: Q01DX009 (ip), vehicle: Klucel (hydroxypropylcellulose) (HPC) 96 % of control

CC1=CC(C)(C)NC(=S)N1c1cccc2ccccc12
inactive: dose: 25.0 mg/kg/injection, schedule: Q01DX009 (ip), vehicle: saline with Tween-80 116 % of control | dose: 50.0 mg/kg/injection, schedule: Q01DX009 (ip), vehicle: saline with Tween-80 103 % of control | [10] 110 % of control | [11] 113 % of control

CN(C)C(=S)N/N=C/c1ccccn1
inactive: dose: 6.25 mg/kg/injection, schedule: Q01DX005 (ip), vehicle: Klucel (hydroxypropylcellulose) (HPC) 115 % of control | dose: 12.5 mg/kg/injection, schedule: Q01DX005 (ip), vehicle: Klucel (hydroxypropylcellulose) (HPC) 115 % of control

COc1cc2c(cc1OC)C1C(O)C(OC)C(O)C3=CCN(C2)C31 (stereo unspecified)
inactive: [4] 100 % of control | [5] 104 % of control | [6] 102 % of control

Nc1[nH]c(=S)nc2nc[nH]c12
inactive: dose: 6.25 mg/kg/injection, schedule: Q01DX005 (ip), vehicle: saline with Tween-80 103 % of control | dose: 12.5 mg/kg/injection, schedule: Q01DX005 (ip), vehicle: saline with Tween-80 100 % of control

CC(=O)O[C@H]1CC[C@H]2[C@@H]3CCC4=CC(=O)CC[C@]4(C)[C@H]3[C@H](OC(C)=O)C[C@]12C
inactive: [10] 95 % of control | [11] 100 % of control | dose: 400.0 mg/kg/injection, schedule: Q01DX009 (ip), vehicle: saline with Tween-80 90 % of control

COC1=C(OC)C(=O)C(N2CCCCC2)=C(CO)C1=O
inactive: dose: 60.0 mg/kg/injection, schedule: Q01DX005 (ip), vehicle: saline + Tween-80 + alcohol 88 % of control | dose: 120.0 mg/kg/injection, schedule: Q01DX005 (ip), vehicle: saline + Tween-80 + alcohol 94 % of control | dose: 240.0 mg/kg/injection, schedule: Q01DX005 (ip), vehicle: saline + Tween-80 + alcohol 107 % of control

Cc1cccc(C(=O)O)c1C
inactive: dose: 50.0 mg/kg/injection, schedule: Q04DX003 (ip), vehicle: gum acacia 100 % of control | dose: 100.0 mg/kg/injection, schedule: Q04DX003 (ip), vehicle: gum acacia 97 % of control | dose: 200.0 mg/kg/injection, schedule: Q04DX003 (ip), vehicle: gum acacia 93 % of control | dose: 400.0 mg/kg/injection, schedule: Q04DX003 (ip), vehicle: gum acacia 98 % of control

c1ccc(C[N+]23CC[N+](Cc4ccccc4)(CC2)CC3)cc1
inactive: dose: 50.0 mg/kg/injection, schedule: Q04DX003 (ip), vehicle: saline 95 % of control | dose: 100.0 mg/kg/injection, schedule: Q04DX003 (ip), vehicle: saline 108 % of control | dose: 200.0 mg/kg/injection, schedule: Q04DX003 (ip), vehicle: saline 95 % of control

CN(C)CCSc1cccc2c1C(=O)c1cccc(SCCN(C)C)c1C2=O
inactive: dose: 0.78 mg/kg/injection, schedule: Q01DX009 (ip), vehicle: saline 89 % of control | dose: 1.56 mg/kg/injection, schedule: Q01DX009 (ip), vehicle: saline 90 % of control | dose: 3.13 mg/kg/injection, schedule: Q01DX009 (ip), vehicle: saline 98 % of control | dose: 3.13 mg/kg/injection, schedule: Q01DX009 (ip), vehicle: water 105 % of control and 98 % of control | dose: 6.25 mg/kg/injection, schedule: Q01DX009 (ip), vehicle: saline 86 % of control | dose: 6.25 mg/kg/injection, schedule: Q01DX009 (ip), vehicle: water 99 % of control and 100 % of control | dose: 12.5 mg/kg/injection, schedule: Q01DX009 (ip), vehicle: saline 121 % of control | dose: 12.5 mg/kg/injection, schedule: Q01DX009 (ip), vehicle: water 101 % of control and 90 % of control | dose: 25.0 mg/kg/injection, schedule: Q01DX009 (ip), vehicle: water 100 % of control and 92 % of control | dose: 50.0 mg/kg/injection, schedule: Q01DX009 (ip), vehicle: water 90 % of control

Cc1occ(Br)c(=O)c1O
inactive: dose: 50.0 mg/kg/injection, schedule: Q01DX005 (ip), vehicle: saline 104 % of control | dose: 100.0 mg/kg/injection, schedule: Q01DX005 (ip), vehicle: saline 103 % of control | dose: 200.0 mg/kg/injection, schedule: Q01DX005 (ip), vehicle: saline 103 % of control
